Results on one compound are retold here after PMC3577903, “Staphylococcus aureus FepA and FepB Proteins Drive Heme Iron Utilization in Escherichia coli” (PLoS ONE, 2013).

The target of this test is T1, FepB (FepB-6His, apo-FepB) (Staphylococcus aureus, UniProt Q2G130).
T1 construct: gene SAOUHSC_00326; Tat signal peptide removed; six-histidine tag kept (pET22b NdeI/XhoI); expressed in E. coli; apo form monomeric after gel filtration (heme-loaded form dimeric)
The test can be described thus: UV-visible absorbance titration (Soret band […] nm), one-site fit. The test is classed as binding. Conditions: apo-FepB 2.2 µM, 50 mM Tris-HCl pH 8.0, 0.2 M NaCl, room temperature; stoichiometry 0.9; PPIX in DMSO; stoichiometry 0.7.

T1 sequence (Q2G130 entry or part of it): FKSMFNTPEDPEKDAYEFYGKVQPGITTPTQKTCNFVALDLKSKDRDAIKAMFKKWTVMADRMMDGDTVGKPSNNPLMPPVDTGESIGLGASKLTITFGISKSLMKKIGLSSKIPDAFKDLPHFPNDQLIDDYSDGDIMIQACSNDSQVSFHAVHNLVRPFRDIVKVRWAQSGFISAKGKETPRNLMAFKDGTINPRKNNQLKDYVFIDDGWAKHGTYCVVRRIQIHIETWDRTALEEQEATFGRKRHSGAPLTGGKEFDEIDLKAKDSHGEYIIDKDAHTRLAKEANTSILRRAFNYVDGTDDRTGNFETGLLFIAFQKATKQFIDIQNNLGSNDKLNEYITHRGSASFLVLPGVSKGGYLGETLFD

On to `C=CC1=C(C)c2cc3[nH]c(cc4nc(cc5[nH]c(cc1n2)c(C)c5CCC(=O)O)C(CCC(=O)O)=C4C)c(C)c3C=C` [PPIX], for which the Kd was 21.1±5,2 nM.
